Test results published in US12091676B2, “Method for preparing non-human primate somatic cell cloned animal” (CENTER FOR EXCELLENCE IN BRAIN SCIENCE AND INTELLIGENCE …, priority 2018, dated 2024).

Test system: cynomolgus monkey somatic cell nuclear transfer embryos
Experiment: In vitro development of cynomolgus monkey somatic cell nuclear transfer embryos to blastocyst
Assay type: cell-based, cynomolgus monkey (Macaca fascicularis)
Excerpt: Oocyte denucleation: 15-20 MII stage oocytes were transferred to a glass-bottomed and oil-sealed TH3 working drop containing […], and the position of the oocyte nucleus was observed under the inverted microscope assisted by the spindle imaging system, and the oocyte was fixed with an egg-holding needle and the oocyte nucleus was located at 3 o'clock direction. The Piezo Micromainpulator System was used to drive a flat needle with a diameter of 10 microns to break the zona pellucida, and the oocyte nucleus was removed. After the whole group of oocytes were enucleated, the enucleated oocytes were transferred to HECM-9 medium.
Injection of fibroblasts into enucleated oocytes: 15-20 enucleated oocytes were transferred to an oil-sealed TH3 working drop containing […], and the oocytes were fixed with an egg holding needle, and the polar body was placed at 12 o'clock or 6 o'clock direction. The laser zona pellucida system was used for breaking the zona pellucida to form a narrow slit. An oblique needle with a diameter of 15-18 microns was used for aspirating fibroblasts and transferring the cells to HVJ-E for 10 seconds, and then the cells were removed and injected into the perivitelline space of the enucleated egg cell through the zona pellucida slit, and the somatic cell would fuse into the oocyte in about 10 minutes.
Injection of cumulus cells into enucleated oocytes: 15-20 enucleated oocytes were transferred to an oil-sealed TH3 working drop containing […], and the oocytes were fixed with an egg holding needle, and the polar body was placed at 12 o'clock or at 6 o'clock direction. The laser zona pellucida system was used for breaking the zona pellucida to form a narrow slit. A 10-micron oblique needle was used for aspirating the cumulus cells and transferring the cells to HVJ-E to soak for 10 seconds, then the cells were removed and injected into the 9 o'clock position of the enucleated egg cell through the zona pellucida slit, and the somatic cell would fuse into the oocyte in about 10 minutes.
In vitro activation of nuclear transfer embryos: Embryo activation can be performed 1-1.5 hours after the fusion of somatic cells and enucleated oocytes. The embryos were transferred to TH3 containing 5 μM ionomycin for 5 minutes, then transferred to HECM-9 medium containing 2 mM 6-DMAP and 10 nM TSA for 5 hours, then transferred to HECM-9 containing 10 nM TSA and cultured for 5 hours, and finally transferred to HECM-9 medium for culture.
Kdm4d mRNA injection: 5-6 hours after embryo activation, the activated embryo was transferred to an oil-sealed TH3 working drop containing 5 μg/ml CB, the embryo was fixed with an egg-holding needle, and the Piezo Micromainpulator System was used to drive a flat injection needle with a diameter of 2-3 microns to break the zona pellucida and penetrate deep into the embryo. The embryo cell membrane was broken and 1000 ng/μl of Kdm4d mRNA was injected into the embryo, and each embryo was injected about 10 pl. After the injection, the embryos were transferred to HECM-9 medium and cultured at 37° C. and 5% CO2.
Embryo culture: cloned embryos were cultured in HECM-9 medium, and then transferred to HECM-9 medium containing 5% FBS at the 8-cell stage, and the medium was changed every other day until blastocysts were appeared on day 7-8.

Compound	embryos developed to the blastocyst stage (blastocysts/embryos) (SCNT embryos cultured in vitro, TSA 10 nM, 10 h during and after activation)	blastocysts that had inner cell masses (out of 5 blastocysts, TSA 10 nM, 10 h)	effect on improving the efficiency of monkey somatic cell nuclear transfer embryos	blastocyst rate (20 injected embryos) [%]	blastocysts obtained (number) (of 20 injected monkey somatic cell nuclear transfer embryos)
CC(/C=C/C(=O)NO)=C\[C@@H](C)C(=O)c1ccc(N(C)C)cc1 [TSA, Trichostatin, reference compound]	5/31	2			
Kdm5b: H3K4me3 demethylase injected into monkey somatic cell nuclear transfer embryos			no significant effect	10	2
